Test results: patent publication US20240174723A1, “STAPLED ANTIMICROBIAL PEPTIDES (STAMPS) AND USES THEREOF” (Lytica Therapeutics, Inc., priority 2021, published 2024)
Values after ≈ are worked out from the molar mass of the structure shown. Like-named read-outs stand apart in the source and are kept apart here. Positions of bridges follow the written chain, without caps; N, C: chain ends. Non-standard residues stand in square brackets, D forms with d. Residues, ends and D or L forms follow the SMILES beside them. S5 = C=CCCC[C@](C)(N)C(=O)O; PEG2 = NCCOCCOCCC(=O)O; PEG1 = NCCOCCC(=O)O

How the values were obtained:
K. pneumoniae = type: cell-based, Klebsiella pneumoniae
Method in brief: (§1)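 Minimum inhibitory concentrations of stapled peptides were determined by a microbroth dilution method derived from CLSI, using a final inoculum of 5×10^5 CFU/ml and 20-24 h incubation at 37 °C.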

A. baumannii = type: cell-based, Acinetobacter baumannii
Method in brief: as §1

in vitro [1] = type: cell-based; settings: human
Protocol: Cell culture: RPTEC were maintained in MEM media supplemented with growth factors. HEPG2 cell line was maintained in Eagle's Minimum Essential Medium (EMEM) supplemented with fetal bovine serum to a final concentration of 10%.
90 minute cytotoxicity assay: Cells were plated in a 96-well format, and after overnight incubation, media was replaced with fresh media. Serial dilutions of StAMPs from a 5 mg/mL water stock, or vehicle, were added to the cells in a final volume of 100 μl. After incubating at 37° C. for 90 min, 50 μl of cell culture media was transferred to a clear 96-well plate, incubated with 50 μl of lactate dehydrogenase (LDH) assay reagent for 10 min, and absorbance measured at 490 nm on a microplate reader.
Renal toxicity was measured after 90 minutes of incubation, while liver toxicity was measured after 48 hours of incubation with StAMPs. N/A=not tested. The following apply to all peptides (i.e., StAMPs) listed in Tables A-C: Crosslinks (X^1—X^2 and X^3—X^4): (alk); N-terminus: —NH2; C-terminus: amidated with —NH2; counterion: Cl^−. The following apply to all peptides (i.e., StAMPs) listed in Table D: Crosslinks (X^1—X^2 and X^3—X^4): (alk); N-terminus: —NH2; C-terminus: as shown in table; counterion: Cl^−.
StAMP Micelle Formulation: DSPE-MPEG(2000) was suspended in buffered saline at 50-100 mg/mL overnight. StAMP stock solutions at 5-20 mg/mL in buffered saline were prepared and equal volumes of micelle and StAMP stock solution were mixed at the desired StAMP:Lipid ratio. Suspensions were allowed to sit for 5-10 minutes at room temperature before being used in in vitro and in vivo assays.
In Table E, the StAMP is StAMP 4 (Table A) and “Lipid”=DSPE-MPEG(2000).

in vitro [2] = type: cell-based; settings: human; remark: listed apart in the source
Method in brief: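 HepG2 cells in EMEM with 10% FBS, allowed 4 h to attach, then exposed to serial dilutions of StAMPs (from a 5 mg/mL water stock) or vehicle. After 48 h at 37 °C, viability read by CellTiter-Glo luminescence.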

P. aeruginosa = type: cell-based, Pseudomonas aeruginosa
Method in brief: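 Broth microdilution adapted from CLSI in MHB or cation-adjusted MHB; log-phase P. aeruginosa at 5×10^5 CFU/ml final with serially diluted stapled peptides. Incubated 20-24 h at 37 °C; MIC is the lowest concentration without visible growth.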

S. aureus = type: cell-based, Staphylococcus aureus
Method in brief: as §1

E. coli = type: cell-based, Escherichia coli
Method in brief: as §1

[3] = Inhibitory Concentration at 50% Cytotoxicity (IC50) Human Liver Cells (HepG2)

Minimum Inhibitory Concentration (MIC) K. pneumoniae (K. pneumoniae) [µg/mL]	Minimum Inhibitory Concentration (MIC) A. baumannii (A. baumannii) [µg/mL]	IC50 at 90 min (in vitro [1]) [µg/mL]	Minimum Inhibitory Concentration (MIC) P. aeruginosa (P. aeruginosa) [µg/mL]	Minimum Inhibitory Concentration (MIC) S. aureus (S. aureus) [µg/mL]	Minimum Inhibitory Concentration (MIC) E. coli (E. coli) [µg/mL]	Structure (SMILES)	IC50 at 48 hours (in vitro [2]; [3]) [µg/mL]	IC50 at 90 min (in vitro [1]; 90 minutes of incubation, read-out: Inhibitory Concentration at 50% Cytotoxicity (IC50) Human Renal Proximal Tubule Epithelial Cells (RPTEC)) [µg/mL]	IC50 at 48 hours (in vitro [2]; 48 hours of incubation, read-out: Inhibitory Concentration at 50% Cytotoxicity (IC50) Human Liver Cells (HepG2)) [µg/mL]
8	4	30 (≈ 11.1 µM)	16	>64	16	CC(C)[C@@H]1NC(=O)[C@@](C)(NC(=O)[C@H](C)NC(=O)[C@H](CCCCN)NC(=O)[C@H](Cc2c[nH]c3ccccc23)NC(=O)[C@H](Cc2c[nH]c3ccccc23)NC(=O)[C@H](CCCCN)NC(=O)[C@H](CCCCN)NC(=O)[C@H](CCCCN)NC(=O)[C@H](CO)NC(=O)[C@H](Cc2c[nH]cn2)NC(=O)[C@]2(C)CCCC=CCCC[C@](C)(NC(=O)CN)C(=O)NCC(=O)N[C@@H](CCCCN)C(=O)N[C@@H](Cc3ccccc3)C(=O)N2)CCCC=CCCC[C@@](C)(C(=O)N[C@@H](C)C(=O)N[C@@H](CCCCN)C(=O)N[C@@H](CCCCN)C(N)=O)NC(=O)[C@H](CCC(=O)O)NC(=O)CNC1=O [compound 62] (H-G[S5]GKF[S5]HSKKKWWKA[S5]VGE[S5]AKK-NH2; staple 2-6, 16-20)	35 (≈ 13 µM)	–	–
4	2	200 (≈ 74.6 µM)	4	>64	2	CC(C)[C@@H]1NC(=O)[C@@](C)(NC(=O)[C@H](C)NC(=O)[C@H](CCCCN)NC(=O)CNC(=O)[C@H](Cc2ccccc2)NC(=O)[C@H](CCCCN)NC(=O)[C@H](CCCCN)NC(=O)[C@H](CCCCN)NC(=O)[C@H](CCCCN)NC(=O)[C@H](CCCCN)NC(=O)[C@]2(C)CCCC=CCCC[C@](C)(NC(=O)CN)C(=O)NCC(=O)N[C@@H](CCCCN)C(=O)N[C@@H](Cc3ccccc3)C(=O)N2)CCCC=CCCC[C@@](C)(C(=O)N[C@@H](C)C(=O)N[C@@H](CCCCN)C(=O)N[C@@H](CCCCN)C(=O)NCCOCCC(N)=O)NC(=O)[C@H](CCC(=O)O)NC(=O)CNC1=O [compound 71] (H-G[S5]GKF[S5]KKKKKFGKA[S5]VGE[S5]AKK[PEG1]-NH2; staple 2-6, 16-20)	247 (≈ 92.2 µM)	–	–
>64	4	78 (≈ 29.3 µM)	16	>64	8	CC(C)[C@@H]1NC(=O)[C@@](C)(NC(=O)[C@H](C)NC(=O)[C@H](CCCCN)NC(=O)CNC(=O)[C@H](Cc2ccccc2)NC(=O)[C@H](CCCCN)NC(=O)[C@H](CCCCN)NC(=O)[C@H](CCCCN)NC(=O)[C@H](CO)NC(=O)[C@H](Cc2c[nH]cn2)NC(=O)[C@]2(C)CCCC=CCCC[C@](C)(NC(=O)[C@@H](N)Cc3c[nH]c4ccccc34)C(=O)NCC(=O)N[C@@H](CCCCN)C(=O)N[C@@H](Cc3ccccc3)C(=O)N2)CCCC=CCCC[C@@](C)(C(=O)N[C@@H](C)C(=O)N[C@@H](CCCCN)C(=O)N[C@@H](CCCCN)C(N)=O)NC(=O)[C@H](CCC(=O)O)NC(=O)CNC1=O [compound 56] (H-W[S5]GKF[S5]HSKKKFGKA[S5]VGE[S5]AKK-NH2; staple 2-6, 16-20)	200 (≈ 75.2 µM)	–	–
4	2	200 (≈ 73.4 µM)	4	>64	2	CC(C)[C@@H]1NC(=O)[C@@](C)(NC(=O)[C@H](C)NC(=O)[C@H](CCCCN)NC(=O)CNC(=O)[C@H](Cc2ccccc2)NC(=O)[C@H](CCCCN)NC(=O)[C@H](CCCCN)NC(=O)[C@H](CCCCN)NC(=O)[C@H](CCCCN)NC(=O)[C@H](CCCCN)NC(=O)[C@]2(C)CCCC=CCCC[C@](C)(NC(=O)CN)C(=O)NCC(=O)N[C@@H](CCCCN)C(=O)N[C@@H](Cc3ccccc3)C(=O)N2)CCCC=CCCC[C@@](C)(C(=O)N[C@@H](C)C(=O)N[C@@H](CCCCN)C(=O)N[C@@H](CCCCN)C(=O)NCCOCCOCCC(N)=O)NC(=O)[C@H](CCC(=O)O)NC(=O)CNC1=O [compound 72] (H-G[S5]GKF[S5]KKKKKFGKA[S5]VGE[S5]AKK[PEG2]-NH2; staple 2-6, 16-20)	275 (≈ 101 µM)	–	–

The remaining lines, values behind:

Structure (SMILES)	Minimum Inhibitory Concentration (MIC) K. pneumoniae (K. pneumoniae) [µg/mL]	Minimum Inhibitory Concentration (MIC) A. baumannii (A. baumannii) [µg/mL]	IC50 at 90 min (in vitro [1]) [µg/mL]	Minimum Inhibitory Concentration (MIC) P. aeruginosa (P. aeruginosa) [µg/mL]	Minimum Inhibitory Concentration (MIC) S. aureus (S. aureus) [µg/mL]	Minimum Inhibitory Concentration (MIC) E. coli (E. coli) [µg/mL]	IC50 at 48 hours (in vitro [2]; [3]) [µg/mL]	IC50 at 90 min (in vitro [1]; 90 minutes of incubation, read-out: Inhibitory Concentration at 50% Cytotoxicity (IC50) Human Renal Proximal Tubule Epithelial Cells (RPTEC)) [µg/mL]	IC50 at 48 hours (in vitro [2]; 48 hours of incubation, read-out: Inhibitory Concentration at 50% Cytotoxicity (IC50) Human Liver Cells (HepG2)) [µg/mL]
CC(C)[C@@H]1NC(=O)[C@@](C)(NC(=O)[C@H](C)NC(=O)[C@H](CCCCN)NC(=O)CNC(=O)[C@H](Cc2ccccc2)NC(=O)[C@H](CCCCN)NC(=O)[C@H](CCCCN)NC(=O)[C@H](CCCCN)NC(=O)[C@H](CO)NC(=O)[C@H](Cc2c[nH]cn2)NC(=O)[C@]2(C)CCCC=CCCC[C@](C)(NC(=O)CN)C(=O)NCC(=O)N[C@@H](CCCCN)C(=O)N[C@@H](Cc3ccccc3)C(=O)N2)CCCC=CCCC[C@@](C)(C(=O)N[C@@H](C)C(=O)N[C@@H](CCCCN)C(=O)N[C@@H](CCCCN)C(N)=O)NC(=O)[C@H](CCC(N)=O)NC(=O)CNC1=O [compound 17] (H-G[S5]GKF[S5]HSKKKFGKA[S5]VGQ[S5]AKK-NH2; staple 2-6, 16-20)	32	2	~180 (≈ 71.1 µM)	4	>64	3	> 200	–	–
CC(C)[C@@H]1NC(=O)[C@@](C)(NC(=O)[C@H](C)NC(=O)[C@H](CCCCN)NC(=O)CNC(=O)[C@H](Cc2ccccc2)NC(=O)[C@H](CCCCN)NC(=O)[C@H](CCCCN)NC(=O)[C@H](CCCCN)NC(=O)[C@H](CCCCN)NC(=O)[C@H](CCCCN)NC(=O)[C@]2(C)CCCC=CCCC[C@](C)(NC(=O)CN)C(=O)NCC(=O)N[C@@H](CCCCN)C(=O)N[C@@H](Cc3ccccc3)C(=O)N2)CCCC=CCCC[C@@](C)(C(=O)N[C@@H](C)C(=O)N[C@@H](CCCCN)C(=O)N[C@@H](CCCCN)C(=O)NCC(=O)NCC(=O)N[C@@H](CCC(=O)O)C(N)=O)NC(=O)[C@H](CCC(=O)O)NC(=O)[C@H](Cc2ccccc2)NC1=O [compound 33] (H-G[S5]GKF[S5]KKKKKFGKA[S5]VFE[S5]AKKGGE-NH2; staple 2-6, 16-20)	4	2	–	4	>64	2	–	~200 (≈ 69 µM)	> 200
CC(C)[C@@H]1NC(=O)[C@H](C(C)C)NC(=O)[C@@](C)(NC(=O)[C@H](C)NC(=O)[C@H](CCCCN)NC(=O)CNC(=O)[C@H](Cc2ccccc2)NC(=O)[C@H](CCCCN)NC(=O)[C@H](CCCCN)NC(=O)[C@H](CCCCN)NC(=O)[C@H](CO)NC(=O)[C@H](CCCCN)NC(=O)[C@]2(C)CCCC=CCCC[C@](C)(NC(=O)CN)C(=O)NCC(=O)N[C@@H](CCCCN)C(=O)N[C@@H](Cc3ccccc3)C(=O)N2)CCCC=CCCC[C@@](C)(C(=O)N[C@@H](C)C(=O)N[C@@H](CCCCN)C(=O)N[C@@H](CCCCN)C(N)=O)NC(=O)[C@H](CCC(=O)O)NC1=O [compound 19] (H-G[S5]GKF[S5]KSKKKFGKA[S5]VVE[S5]AKK-NH2; staple 2-6, 16-20)	4	2	92 (≈ 35.9 µM)	4	>64	2	95 (≈ 37 µM)	–	–
